Test results published in patent US20080311126A1, “Antisense Oligonucleotides Directed to Ribonucleotide Reducatase R2 and Uses Thereof in Combination Therapies for the Treatment of Cancer” (Genesense Technologies, Inc, priority 2004, published 2008).
“Also recorded” adds a separate entry of the source.

Key:
Assay type in all cases: in vivo
[1] = system: HT-29 human colon cancer cells; test: HT-29 colon tumour xenograft in CD-1 nude mice
Protocol: HT-29 human colon cancer cells (3×10^6 cells in 100 μl of PBS) were subcutaneously injected into the right flank of 6-7 weeks old female CD-1 nude mice. After the size of tumour reached an approximate volume of 50 mm^3, 4 days post tumour cell injection, mitomycin C was administered by bolus infusion into the tail vein at days 4, 11 and 18 with a dose of 3.5 mg/kg/week. Antitumour effect of mitomycin C was further compared to that of SEQ ID NO:1 in combination with mitomycin C. SEQ ID NO:1 was administered by bolus infusion into the tail vein every day at 6 mg/kg and mitomycin C was administered intravenously at days 4, 11 and 18 with a dose of 3.5 mg/kg/week, one hour after the treatments with SEQ ID NO:1. Control animals received saline alone for the same period as SEQ ID NO:1. All treatments were stopped at day 22. A day after the last treatment, tumours were excised from the animals and their weights were measured.
HT-29 human colon cancer cells (3×10^6 cells in 100 μl of PBS) were subcutaneously injected into the right flank of 5-6 week old female CD-1 nude mice. After the size of tumour reached an approximate volume of 100 mm^3, 7 days post tumour cell injection, SEQ ID NO:1 was administered by bolus infusion into the tail vein every other day at 10 mg/kg. Control animals received saline alone for the same period. Antitumour effect of SEQ ID NO:1 was further compared to that of CPT-11 alone or that of SEQ ID NO:1 in combination with CPT-11. CPT-11 was administered intraperitoneally for 5 days in a row from […] with a dose of 20 mg/kg in 100 μl saline. All treatments were stopped at day 32. A day after the last treatment, tumours were excised from the animals and their weights were measured.
HT-29 human colon cancer cells (3×10^6 cells in 100 μl of PBS) were subcutaneously injected into the right flank of 6-7 week old female CD-1 nude mice. Treatments started at day 5 post tumour cell injection, SEQ ID NO:1 and 5-FU were administered as outlined below: • Groups and treatment: • Group 1. Saline treated group: saline:0.1 ml/2 days, i.v.; • Group 2. SEQ ID NO:1 treated group: 10 mg/kg/2 days in 100 μL saline, i.v.; • Group 3. 5-FU treated group:13 mg/kg/5 days/week (one week on and one week off), i.v.; • Group 4. SEQ ID NO:1 plus 5-FU treated group.
HT-29 human colon cancer cells (3×10^6 cells in 100 μl of PBS) were subcutaneously injected into the right flank of 5-6 week old female CD-1 nude mice. Treatments started 4 days post tumour cell injection, SEQ ID NO: 1 and Capecitabine were administered as outlined below: • Group and Treatment: • Group 1: treated with 0.2 ml vehicle solution for capecitabine, o.p.; • Group 2: treated with 0.1 ml saline, i.v.; • Group 3: treated with 359 mg/kg/day×5/w Capecitabine in 0.2 ml vehicle solution, o.p.; • Group 4: treated with 10 mg/kg/2 days SEQ ID NO:1 in 0.1 ml saline i.v.; • Group 5: treated with 10 mg/kg/2 days SEQ ID NO:1 in 0.1 ml saline, i.v. plus 359 mg/kg/day×5/w capecitabine in 0.2 ml vehicle solution, o.p.

[2] = system: MDA-MB-231 human breast cancer cells; test: MDA-MB-231 breast tumour xenograft in CD-1 nude mice
Protocol: MDA-MB-231 human breast cancer cells (1×10^7 cells in 100 μl of PBS) were subcutaneously injected into the right flank of 6-7 weeks old female CD-1 nude mice. After the size of tumour reached an approximate volume of 100 mm^3, 5 days post tumour cell injection, SEQ ID NO:1, or the scrambled control oligonucleotide (SEQ ID NO:3) were administered by bolus infusion into the tail vein every other day at 10 mg/kg. Control animals received saline alone for the same period. Antitumour effect of SEQ ID NO:1 was further compared to that of taxol or doxorubicin alone or in combination. Taxol was administered intravenously once a week at a dose of 10 mg/kg for three (FIG. 17A) or four weeks (FIG. 17C). Doxorubicin was administered intravenously once a week at a dose of 5 mg/kg for first three weeks (FIG. 17A) or for two weeks (FIG. 17C). All treatments were stopped at day 33 (FIG. 17A) or at day 26 (FIG. 17C), respectively. A day after the last treatment, tumours were excised from the animals and their weights were measured. […] In FIG. 17C, antitumour activities were estimated by the inhibition of tumour volume, which was measured with calipers. Each point represents mean tumour volume calculated from 10 animals per experimental group.

[3] = system: Human taxol-resistant promyelocytic leukaemia cells (HL-60); test: HL-60 taxol-resistant promyelocytic leukaemia xenograft in SCID mice
Protocol: Human taxol-resistant promyelocytic leukaemia cells (HL-60) (7×10^6 cells in 100 μl of PBS) were injected into the right flank of 6-7 weeks old female SCID mice. After the size of tumour reached an approximate volume of 100 mm^3, 10 days post tumour cell injection, SEQ ID NO:1 was administered by bolus infusion into the tail vein every other day at 10 mg/kg. Control animals received saline alone for the same period. The anti-tumour effect of SEQ ID NO:1 was further compared to that of taxol. Taxol was administered i.p. once a week at a dose of 10 mg/kg. Anti-tumour activity was estimated by the inhibition of tumour volume, which was measured with caliper. Each point represents mean tumour volume calculated from 10 animals per experimental group. In addition animals were sacrificed and tumour weights taken at the end of the study.

[4] = system: Human Colon Adenocarcinoma; test: Tumour growth assay, human colon adenocarcinoma in CD-1 nude mice
[5] = system: Human Melanoma; test: Tumour growth assay, human melanoma in mice
[6] = system: Human Pancreatic Adenocarcinoma; test: Tumour growth assay, human pancreatic adenocarcinoma in mice
[7] = system: Human Liver Carcinoma; test: Tumour growth assay, human liver carcinoma in CD-1 nude mice

Question: How did the “antitumour effect (tumour weight)” value ([1]; Example 12.2, SEQ ID NO:1 10 mg/kg every other day i.v., CPT-11 20 mg/kg i.p. 5 days) turn out when “GGCTAAATCGCTCCACCAAG (chemistry not given here) [SEQ ID NO: 1, antisense oligonucleotide that hybridizes to the coding region of human ribonucleotide reductase R2 mRNA]” was run?
Answer: The value was “significant delay of tumour growth; also recorded: superior to the inhibitory effects observed with CPT-11 alone”.

Question: What about the “Tumour weight as % of saline control” value ([1]; HT-29 (colon), Mouse CD-1, CPT-11 study) of the same sequence?
Answer: The value was 19%.

Question: And the “Tumour weight as % of saline control” value ([2]; MDA-MB-231 (breast), Mouse CD-1)?
Answer: Its value is 12.6%.

Question: And the “antitumour effect (tumour weight, tumour volume)” value ([2]; oligonucleotide 10 mg/kg every other day i.v., taxol 10 mg/kg, doxorubicin 5 mg/kg i.v. once a week)?
Answer: The value was “delay of tumour growth compared to saline control in all three experiments; also recorded: superior to the inhibitory effects observed with taxol or doxorubicin alone”.

Question: What about the “Tumour weight as % of saline control” value ([3]; HL-60 (leukemia), Taxol resistance, SCID) of the same sequence?
Answer: Its value is 38%.

Question: And the “anti-tumour effect (tumour volume, tumour weight)” value ([3]; SEQ ID NO:1 10 mg/kg every other day, Taxol 10 mg/kg i.p. weekly)?
Answer: Its value is “significant reduction of tumour weight”.

Question: What about the “Inhibition of tumour size” value ([4]; CD-1 nude mice, Day 18 after tumour implantation) of the same sequence?
Answer: The value was “mice by approximately 80% on Day 18”.

Question: And the “dose dependence of decrease in tumour weight” value ([4]; CD-1 nude mice, doses of 1.0 to 6.0 mg/kg)?
Answer: Its value is “Dose-dependent decrease in tumour”.

Question: What about the “Inhibition of tumour weight” value ([4]; Human Colon Adenocarcinoma) of the same sequence?
Answer: Its value is “approximately 80%”.

Question: What about the “Inhibition of tumour weight” value [5] of the same sequence?
Answer: Its value is “approximately 80%”.

Question: What about the “Inhibition of tumour weight” value ([6]; Human Pancreatic Adenocarcinoma) of the same sequence?
Answer: Its value is “approximately 65%”.

Question: What about the “inhibition of tumour growth” value ([6]; up to 39 days after tumour implantation) of the same sequence?
Answer: The value was “Complete inhibition of tumour growth”.

Question: And the “Inhibition of tumour weight” value [7]?
Answer: The value was “approximately 65%”.
